Experimental data taken from PubChem BioAssay (NCI).
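A five-concentration, 48-hour dose response in 96-well plates underlies each endpoint, interpolated linearly between surrounding concentrations. TGI is the concentration that stops growth completely.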

How the values were obtained:
Test in all cases: NCI anticancer screen, dose series, 48 h
ACHN renal = tested on: ACHN renal
EKVX NSCLC = tested on: EKVX NSCLC
SNB-75 CNS = tested on: SNB-75 CNS
UO-31 renal = tested on: UO-31 renal
BT-549 breast = tested on: BT-549 breast
MDA-MB-435 = tested on: MDA-MB-435
NCI-H226 lung = tested on: NCI-H226 lung
NCI-H522 lung = tested on: NCI-H522 lung
MOLT-4 leukemia = tested on: MOLT-4 leukemia
U251 CNS = tested on: U251 CNS

SMILES | TGI (ACHN renal) | TGI (EKVX NSCLC) | TGI (SNB-75 CNS) | TGI (UO-31 renal) | TGI (BT-549 breast) | TGI (MDA-MB-435) | TGI (NCI-H226 lung) | TGI (NCI-H522 lung) | TGI (MOLT-4 leukemia) | TGI (U251 CNS)
CN(C)c1cc[n+](-c2nc(/N=C(\[O-])C(F)(F)F)nc3c2ncn3C2CC(O)C(CO)O2)cc1 (configuration not stated) | > 100 µM | > 100 µM | > 100 µM | > 100 µM | > 100 µM | > 100 µM | > 100 µM | > 100 µM | > 100 µM | > 100 µM
O=C(OCC(Cl)(Cl)Cl)O[C@@H]1CCCC1(c1ccccc1)c1ccccc1 | > 100 µM | > 100 µM | > 100 µM | > 100 µM | > 100 µM | > 100 µM | > 100 µM | > 100 µM | 34.1 µM | > 100 µM
COc1cc(C2c3cc4c(cc3OC(NCCO)C2C)OCO4)cc(OC)c1OC (configuration not stated) | > 91.5 µM | > 100 µM | > 71.7 µM | > 76.4 µM | > 100 µM | 0.463 µM | 9.84 µM | 1.62 µM | 26.3 µM | 12.5 µM
CCc1nc2ccc(NCCN(C)C)c3c(=O)c4ccccc4n1c23 | 6.03 µM | 6.78 µM | 11.9 µM | 10 µM | 21.2 µM | 2.4 µM | 4.34 µM | 4.89 µM | 6.28 µM | 12.1 µM
O=c1cnn(CCOCP(=O)(O)O)c(=O)[nH]1 | > 100 µM | > 100 µM | > 100 µM | > 100 µM | > 100 µM | > 100 µM | > 100 µM | > 100 µM | > 100 µM | > 100 µM
Cc1ccc2c(c1)C(=O)C(C1OC(=O)c3ccccc31)C2 (configuration not stated) | > 100 µM | > 100 µM | > 100 µM | > 100 µM | > 100 µM | > 100 µM | > 100 µM | > 100 µM | > 100 µM | > 100 µM
C/C1=C\C=C(\C(C)C)CC/C(C(=O)O)=C\CC/C(C)=C/CC1 | > 100 µM | 78.7 µM | > 100 µM | 53.8 µM | 79.9 µM | 56.4 µM | 43.3 µM | 39.5 µM | 43.2 µM | 30.5 µM
NC(Cc1ccc(S(=O)(=O)O)cc1)C(=O)NC(Cc1ccc(S(=O)(=O)O)cc1)C(=O)O (configuration not stated) | > 100 µM | > 100 µM | > 100 µM | > 100 µM | > 100 µM | > 100 µM | > 100 µM | > 100 µM | > 100 µM | > 100 µM
CC(=N\N)/C(C)=N/N=C(C)/C(C)=N/N=C(C)/C(C)=N/N | > 100 µM | > 100 µM | > 100 µM | > 100 µM | > 100 µM | > 100 µM | > 100 µM | > 100 µM | > 100 µM | > 100 µM
C(=C\N1CCCCC1)/c1nnnn1-c1ccccc1 | > 100 µM | 63.1 µM | 69.7 µM | > 100 µM | > 100 µM | 66.1 µM | > 100 µM | > 100 µM | 41.9 µM | 80.3 µM
CC(C)C1N(C)c2ccc(Cl)cc2[C@H]2c3ccccc3CCN12 (some centres not stated) | > 100 µM | > 100 µM | > 100 µM | > 100 µM | > 100 µM | 61.6 µM | 67.9 µM | 88.2 µM | > 100 µM | > 100 µM
Cc1nc2c(=S)n(C)ncc2[nH]1 | > 100 µM | > 100 µM | > 100 µM | > 100 µM | > 100 µM | > 100 µM | > 100 µM | > 100 µM | > 100 µM | > 100 µM
CSc1c(C(=O)Nc2ccc(Cl)cc2)c(N)n(N)c(=O)c1C#N | – | > 100 µM | > 100 µM | > 100 µM | > 100 µM | > 100 µM | > 100 µM | > 100 µM | > 100 µM | > 100 µM
CN(C)CCNC(=O)c1cccc2c1Oc1c(cccc1[N+](=O)[O-])O2 | – | 14.3 µM | 3.96 µM | – | 4.66 µM | 14.4 µM | 0.92 µM | 3.22 µM | 2.27 µM | 10.4 µM
CCn1c(SCC(=O)NNC(=S)NC)nc2ccccc2c1=O | > 100 µM | > 100 µM | > 100 µM | > 100 µM | > 100 µM | > 100 µM | > 100 µM | > 100 µM | > 100 µM | > 100 µM
CNc1ncc(-c2nnnn2-c2ccccc2)c(CN(C)C)n1 | > 100 µM | > 100 µM | > 100 µM | > 100 µM | > 100 µM | > 100 µM | > 100 µM | > 100 µM | > 100 µM | > 100 µM
